Reference: ChEMBL document CHEMBL3046027, “In vitro and in vivo antifungal activity of synthetic pure isothiocyanates against Sclerotinia sclerotiorum” (Pest Manag Sci, 2011)

Legend:
Sclerotinia sclerotiorum [1] = assay: In vivo antifungal Sclerotinia sclerotiorum in Pepper (Capsicum annuum L. cv. Sera Demre) assessed as inhibition of mycelial growth in volatile phase at 168 umol/L measured after 10 to 14 weeks; format: functional
Sclerotinia sclerotiorum [2] = assay: In vivo antifungal Sclerotinia sclerotiorum in Pepper (Capsicum annuum L. cv. Sera Demre) assessed as inhibition of mycelial growth in volatile phase at 84 umol/L measured after 10 to 14 weeks; format: functional
Sclerotinia sclerotiorum [3] = assay: Antifungal activity against Sclerotinia sclerotiorum assessed as inhibition of mycelial growth in contact phase at 2508 umol/l measured at 20 degC after 5 days; format: functional; conditions: 120 h, read-out: GI
Sclerotinia sclerotiorum [4] = assay: Antifungal activity against Sclerotinia sclerotiorum assessed as inhibition of mycelial growth in contact phase at 1672 umol/l measured at 20 degC after 5 days; format: functional; conditions: 120 h, read-out: GI
Sclerotinia sclerotiorum [5] = assay: Antifungal activity against Sclerotinia sclerotiorum assessed as inhibition of mycelial growth in contact phase at 836 umol/l measured at 20 degC after 5 days; format: functional; conditions: 120 h, read-out: GI
Sclerotinia sclerotiorum [6] = assay: Antifungal activity against Sclerotinia sclerotiorum assessed as inhibition of mycelial growth in contact phase at 752 umol/l measured at 20 degC after 5 days; format: functional; conditions: 120 h, read-out: GI
Sclerotinia sclerotiorum [7] = assay: Antifungal activity against Sclerotinia sclerotiorum assessed as inhibition of mycelial growth in contact phase at 585 umol/l measured at 20 degC after 5 days; format: functional; conditions: 120 h, read-out: GI
Sclerotinia sclerotiorum [8] = assay: Fungistatic activity in Sclerotinia sclerotiorum assessed as inhibition of carpogenic germination in volatile phase at 836 umol/l measured at 20 degC after 5 days relative to control; format: functional; conditions: 120 h
Sclerotinia sclerotiorum [9] = assay: Fungistatic activity in Sclerotinia sclerotiorum assessed as inhibition of carpogenic germination in volatile phase at 418 umol/l measured at 20 degC after 5 days relative to control; format: functional; conditions: 120 h
Sclerotinia sclerotiorum [10] = assay: Fungistatic activity in Sclerotinia sclerotiorum assessed as inhibition of carpogenic germination in volatile phase at 84 umol/l measured at 20 degC after 5 days relative to control; format: functional; conditions: AT84, 120 h
Sclerotinia sclerotiorum [11] = assay: Fungistatic activity in Sclerotinia sclerotiorum assessed as inhibition of carpogenic germination in volatile phase at 42 umol/l measured at 20 degC after 5 days relative to control; format: functional; conditions: 120 h
Sclerotinia sclerotiorum [12] = assay: Antifungal activity against Sclerotinia sclerotiorum assessed as inhibition of mycelial growth in volatile phase at 836 umol/l measured at 20 degC after 5 days; format: functional; conditions: 120 h, read-out: GI
Sclerotinia sclerotiorum [13] = assay: Antifungal activity against Sclerotinia sclerotiorum assessed as inhibition of mycelial growth in volatile phase at 585 umol/l measured at 20 degC after 5 days; format: functional; conditions: 120 h, read-out: GI
Sclerotinia sclerotiorum [14] = assay: Antifungal activity against Sclerotinia sclerotiorum assessed as inhibition of mycelial growth in volatile phase at 418 umol/l measured at 20 degC after 5 days; format: functional; conditions: 120 h, read-out: GI
Sclerotinia sclerotiorum [15] = assay: Fungistatic activity in Sclerotinia sclerotiorum assessed as sclerotial viability measured at 20 degC after 5 days; format: functional, organism-based; conditions: 120 h
Sclerotinia sclerotiorum [16] = assay: Fungistatic activity in Sclerotinia sclerotiorum assessed as inhibition of mycelial growth in volatile phase measured at 20 degC after 5 days; format: functional, organism-based; conditions: 120 h
Sclerotinia sclerotiorum [17] = assay: Fungistatic activity in Sclerotinia sclerotiorum assessed as inhibition of mycelial growth in contact phase measured at 20 degC after 5 days; format: functional, organism-based; conditions: 120 h
Sclerotinia sclerotiorum [18] = assay: Fungistatic activity in Sclerotinia sclerotiorum assessed as viability in volatile phase at 418 umol/l measured at 20 degC after 5 days relative to control; format: functional; conditions: 120 h, read-out: GI
Sclerotinia sclerotiorum [19] = assay: Fungistatic activity in Sclerotinia sclerotiorum assessed as inhibition of mycelial growth in contact phase at 1672 umol/l measured at 20 degC after 5 days relative to control; format: functional; conditions: 120 h, read-out: GI
Sclerotinia sclerotiorum [20] = assay: Antifungal activity against Sclerotinia sclerotiorum assessed as inhibition of mycelial growth in volatile phase at 84 umol/l measured at 20 degC after 5 days; format: functional; conditions: 120 h, read-out: GI
Sclerotinia sclerotiorum [21] = assay: Antifungal activity against Sclerotinia sclerotiorum assessed as inhibition of mycelial growth in volatile phase at 42 umol/l measured at 20 degC after 5 days; format: functional; conditions: 120 h, read-out: GI
Sclerotinia sclerotiorum [22] = assay: Fungitoxic activity in Sclerotinia sclerotiorum assessed as inhibition of mycelial growth in contact phase at 2508 umol/l measured at 20 degC after 5 days relative to control; format: functional; conditions: 120 h
Sclerotinia sclerotiorum [23] = assay: Antifungal activity against Sclerotinia sclerotiorum assessed as inhibition of germination in volatile phase at 836 umol/l measured at 20 degC after 5 days; format: functional; conditions: 120 h
Sclerotinia sclerotiorum [24] = assay: Antifungal activity against Sclerotinia sclerotiorum assessed as inhibition of germination in volatile phase at 418 umol/l measured at 20 degC after 5 days; format: functional; conditions: 120 h
Sclerotinia sclerotiorum [25] = assay: Antifungal activity against Sclerotinia sclerotiorum assessed as inhibition of germination in volatile phase at 251 umol/l measured at 20 degC after 5 days; format: functional; conditions: 120 h
Sclerotinia sclerotiorum [26] = assay: Antifungal activity against Sclerotinia sclerotiorum assessed as inhibition of germination in volatile phase at 84 umol/l measured at 20 degC after 5 days; format: functional; conditions: AT84, 120 h
Sclerotinia sclerotiorum [27] = assay: Antifungal activity against Sclerotinia sclerotiorum assessed as inhibition of germination in volatile phase at 42 umol/l measured at 20 degC after 5 days; format: functional; conditions: 120 h
Sclerotinia sclerotiorum [28] = assay: Fungistatic activity in Sclerotinia sclerotiorum assessed as inhibition of mycelial growth in volatile phase at 836 umol/l measured at 20 degC after 5 days relative to control; format: functional; conditions: 120 h, read-out: GI

With `S=C=Nc1ccccc1` [PHENYLISOTHIOCYANATE] the inhibition in vivo at 168 µM (Sclerotinia sclerotiorum [1]) was 68.3%, the inhibition in vivo at 84 µM (Sclerotinia sclerotiorum [2]) was 61.7% and the inhibition of growth at 2508 µM (Sclerotinia sclerotiorum [3]) was 100%. The inhibition of growth at 1672 µM (Sclerotinia sclerotiorum [4]) was 100%, the inhibition of growth at 836 µM (Sclerotinia sclerotiorum [5]) was 65.5% and the inhibition of growth at 752 µM (Sclerotinia sclerotiorum [6]) was 23.7%. For the same compound, the inhibition of growth at 585 µM (Sclerotinia sclerotiorum [7]) was 5%, the inhibition at 836 µM (Sclerotinia sclerotiorum [8]) was 85% and the inhibition at 418 µM (Sclerotinia sclerotiorum [9]) was 52.5%. The inhibition at 84 µM (Sclerotinia sclerotiorum [10]) was 52.5%, the inhibition at 42 µM (Sclerotinia sclerotiorum [11]) was 12.5% and the inhibition of growth at 836 µM (Sclerotinia sclerotiorum [12]) was 100%. It also gave an inhibition of growth at 585 µM (Sclerotinia sclerotiorum [13]) of 74.2%, an inhibition of growth at 418 µM (Sclerotinia sclerotiorum [14]) of 70% and an EC50 (Sclerotinia sclerotiorum [15]) of 192 µM. The EC50 (Sclerotinia sclerotiorum [16]) was 134 µM, the EC50 (Sclerotinia sclerotiorum [17]) was 802 µM and the inhibition of growth at 418 µM (Sclerotinia sclerotiorum [18]) was 100%. It also gave an inhibition of growth at 1672 µM (Sclerotinia sclerotiorum [19]) of 100%, an inhibition of growth at 84 µM (Sclerotinia sclerotiorum [20]) of 42.8% and an inhibition of growth at 42 µM (Sclerotinia sclerotiorum [21]) of 20.8%. It also gave an inhibition at 2508 µM (Sclerotinia sclerotiorum [22]) of 100%, an inhibition at 836 µM (Sclerotinia sclerotiorum [23]) of 100% and an inhibition at 418 µM (Sclerotinia sclerotiorum [24]) of 100%. The inhibition at 251 µM (Sclerotinia sclerotiorum [25]) was 46.7%, the inhibition at 84 µM (Sclerotinia sclerotiorum [26]) was 13.3% and the inhibition at 42 µM (Sclerotinia sclerotiorum [27]) was 6.7%. The inhibition of growth at 836 µM (Sclerotinia sclerotiorum [28]) was 100%.
